Source: patent publication US9988406B2, “Forms of R)-3-(4-(2-(2-methyltetrazol-5-yl)pyridin-5-yl)-3-fluorophenyl)-5-hydroxymethyl oxazolidin-2-one dihydrogen phosphate” (Merck Sharp & Dohme Corp., priority 2009, dated 2018)

Columns and labels:
[1] = hygroscopicity / water content of the free acid and salt forms; format: physicochemical
[2] = stability of the crystalline free acid and salt forms; format: physicochemical

Molecule	hygroscopicity (in words) [1]	water content ([1]; material as prepared)	stability of the crystalline form (in words) [2]
Cn1nnc(-c2ccc(-c3ccc(N4CC(COP(=O)([O-])O)OC4=O)cc3F)cn2)n1.[Na+] (stereo not shown) [mono-sodium salt]	very hygroscopic	over 10 % by weight	
(R)-3-(4-(2-(2-methyltetrazol-5-yl)pyridin-5-yl)-3-fluorophenyl)-5-hydroxymethyl oxazolidin-2-one dihydrogen phosphate [free acid]	non-hygroscopic		very stable at a relatively high temperature
